Reference: ChEMBL document CHEMBL1201862, “PubChem BioAssay data set” (2004)
Active and inactive are the calls of the source.

Tests used:
[1] = target: T1, E3 ubiquitin-protein ligase XIAP (Homo sapiens, UniProt P98170); assay: small molecules displacing peptide from XIAP – biochemical, IAP family, fluorescence polarization (AID 1018); format: functional
[2] = target: T1, E3 ubiquitin-protein ligase XIAP; assay: Counter Screen using XIAP-Bir3 for Chemical Antagonists of Bir1/2 domains of IAP-family anti-apoptotic proteins. [Related pubchem assays (depositor defined):AID1018, AID1449, AID1514, AID1638, AID1749, AID1750, AID488957, AID488963]
HEK293 [3] = assay: inhibition of NOD1-driven NF-kB reporter – cell-based, luminescence, uHTS, primary screen (AID 1578); format: functional; conditions: Homo sapiens
HEK293 [4] = assay: cells; format: functional, cell-based; conditions: Homo sapiens
HEK293 [5] = assay: NOD2 signaling inhibitors in MDP-stimulated cells, cell-based, uHTS, luminescence (AID 2001); format: functional; conditions: Homo sapiens
HEK293 [6] = assay: cells; format: functional, cell-based; conditions: Homo sapiens; remark: listed apart in the source
Vero = assay: viability of Vero cells under compound – cytotoxicity control for flavivirus capping enzyme inhibitors (AID 588742); format: functional; conditions: Chlorocebus sabaeus
[7] = target: Nucleotide-binding oligomerization domain-containing protein 2 (Homo sapiens, UniProt Q9HC29); assay: inhibition of NOD2-driven NF-kB reporter – cell-based, luminescence, uHTS, HEK293 (AID 1566); format: functional
Nonstructural protein 1 = Nonstructural protein 1 (Influenza A virus, UniProt Q194T2); format: functional, Influenza A virus (A/California/07/2009(H1N1))
[8] = target: Glyceraldehyde-3-phosphate dehydrogenase (Homo sapiens, UniProt P04406)
[9] = target: T2, Alkaline phosphatase, tissue-nonspecific isozyme (Homo sapiens, UniProt P05186); assay: potency against alkaline phosphatase TNAP – biochemical, luminescent, dose response, SAR follow-up (AID 1056)
T2 sequence (P05186 whole entry): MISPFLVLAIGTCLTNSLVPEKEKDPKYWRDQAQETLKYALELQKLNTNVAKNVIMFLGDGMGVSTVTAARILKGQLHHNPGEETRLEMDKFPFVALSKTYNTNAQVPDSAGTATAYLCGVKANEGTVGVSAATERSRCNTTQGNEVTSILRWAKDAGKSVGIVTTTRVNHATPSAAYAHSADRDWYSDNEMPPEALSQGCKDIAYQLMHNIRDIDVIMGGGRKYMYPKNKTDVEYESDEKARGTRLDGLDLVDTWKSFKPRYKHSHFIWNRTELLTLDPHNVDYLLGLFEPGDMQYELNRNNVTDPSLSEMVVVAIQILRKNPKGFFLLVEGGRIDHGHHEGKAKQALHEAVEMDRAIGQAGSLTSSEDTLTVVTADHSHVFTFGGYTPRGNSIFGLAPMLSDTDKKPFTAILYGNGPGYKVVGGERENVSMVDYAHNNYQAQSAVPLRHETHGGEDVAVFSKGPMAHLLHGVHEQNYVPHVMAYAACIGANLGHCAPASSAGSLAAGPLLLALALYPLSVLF

SUMO E1/E2 = SUMO E1/E2 (Homo sapiens, UniProt P63279+Q9UBE0+Q9UBT2); assay: SAR analysis of SUMOylation using HTRF in an in-Vitro dose response assay. [Related pubchem assays (depositor defined):AID2006, AID2011, AID2018, AID2069, AID2658]; format: functional
[10] = target: T3, Voltage-gated N-type calcium channel alpha-1B subunit/Amyloid beta A4 precursor protein-binding family A member 1 (Homo sapiens, UniProt Q00975+Q02410); assay: disruptors of Mint-PDZ/N-type channel peptide interaction – biochemical, HTRF, set 2, SAR follow-up (AID 434980); format: functional
[11] = target: T3, Voltage-gated N-type calcium channel alpha-1B subunit/Amyloid beta A4 precursor protein-binding family A member 1; format: protein assay
[12] = target: T3, Voltage-gated N-type calcium channel alpha-1B subunit/Amyloid beta A4 precursor protein-binding family A member 1; assay: disruptors of Mint-PDZ/N-type channel peptide interaction – biochemical, HTRF, SAR follow-up (AID 2489); format: functional
[13] = target: T3, Voltage-gated N-type calcium channel alpha-1B subunit/Amyloid beta A4 precursor protein-binding family A member 1; format: protein assay; remark: listed apart in the source
[14] = target: Induced myeloid leukemia cell differentiation protein Mcl-1 (Homo sapiens, UniProt Q07820); format: functional
[15] = Luminescence Cell-Based Dose HTS Response to Identify Inhibitors of 5'UTR Stem-Loop Driven Prion Protein mRNA Translation in H4-C Neuroglioblastoma Cells. [Related pubchem assays (depositor defined):AID1814, AID1827]; format: functional
[16] = luciferase reporter signal suppression in cells – H4 neuroglioma cells, luminescence, dose response (AID 1990); format: functional, cell-based
[17] = Luminescence Cell-Based Dose Retest to Confirm Activators of 5'UTR Stem-Loop Driven Alpha-Synuclein mRNA Translation in H4 Neuroglioblastoma Cells. [Related pubchem assays (depositor defined):AID1813, AID1829]; format: functional
[18] = Luminescence Cell-Based Dose Response HTS to Identify Inhibitors of 5'UTR Stem-Loop Driven Prion Protein mRNA Translation in H4 Neuroglioblastoma Cells. [Related pubchem assays: 1827 (Project Summary), 1813 (Primary HTS)]; format: functional
[19] = Luminescence Cell-Based Dose Response HTS to Identify Activators of Luciferase Translation or Activity in H4-C Neuroglioblastoma Cells. [Related pubchem assays: 1829 (Project Summary), 1814 (Primary HTS)]; format: functional
[20] = Luminescence Cell-Based Dose Confirmation HTS to Identify Inhibitors of 5'UTR Stem-Loop Driven Alpha-Synuclein mRNA Translation in H4 Neuroglioblastoma Cells. [Related pubchem assays: 1827 (Project Summary), 1813 (Primary HTS)]; format: functional
[21] = Luminescence Cell-Based Dose Response HTS to Identify Inhibitors of Luciferase Translation or Activity in H4-C Neuroglioblastoma Cells. [Related pubchem assays: 1813 (Primary HTS), 1827 (Project Summary)]; format: functional
[22] = Luminescence Cell-Based Dose Response HTS to Identify Activators of 5'UTR Stem-Loop Driven Prion Protein mRNA Translation in H4-C Neuroglioblastoma Cells. [Related pubchem assays: 1829 (Project Summary), 1814 (Primary HTS)]; format: functional
[23] = alpha-synuclein stem-loop luciferase translation blockers – H4 neuroglioma cells, luminescence, confirmation (AID 1988); format: functional, cell-based

T3 sequence (Q00975 whole entry): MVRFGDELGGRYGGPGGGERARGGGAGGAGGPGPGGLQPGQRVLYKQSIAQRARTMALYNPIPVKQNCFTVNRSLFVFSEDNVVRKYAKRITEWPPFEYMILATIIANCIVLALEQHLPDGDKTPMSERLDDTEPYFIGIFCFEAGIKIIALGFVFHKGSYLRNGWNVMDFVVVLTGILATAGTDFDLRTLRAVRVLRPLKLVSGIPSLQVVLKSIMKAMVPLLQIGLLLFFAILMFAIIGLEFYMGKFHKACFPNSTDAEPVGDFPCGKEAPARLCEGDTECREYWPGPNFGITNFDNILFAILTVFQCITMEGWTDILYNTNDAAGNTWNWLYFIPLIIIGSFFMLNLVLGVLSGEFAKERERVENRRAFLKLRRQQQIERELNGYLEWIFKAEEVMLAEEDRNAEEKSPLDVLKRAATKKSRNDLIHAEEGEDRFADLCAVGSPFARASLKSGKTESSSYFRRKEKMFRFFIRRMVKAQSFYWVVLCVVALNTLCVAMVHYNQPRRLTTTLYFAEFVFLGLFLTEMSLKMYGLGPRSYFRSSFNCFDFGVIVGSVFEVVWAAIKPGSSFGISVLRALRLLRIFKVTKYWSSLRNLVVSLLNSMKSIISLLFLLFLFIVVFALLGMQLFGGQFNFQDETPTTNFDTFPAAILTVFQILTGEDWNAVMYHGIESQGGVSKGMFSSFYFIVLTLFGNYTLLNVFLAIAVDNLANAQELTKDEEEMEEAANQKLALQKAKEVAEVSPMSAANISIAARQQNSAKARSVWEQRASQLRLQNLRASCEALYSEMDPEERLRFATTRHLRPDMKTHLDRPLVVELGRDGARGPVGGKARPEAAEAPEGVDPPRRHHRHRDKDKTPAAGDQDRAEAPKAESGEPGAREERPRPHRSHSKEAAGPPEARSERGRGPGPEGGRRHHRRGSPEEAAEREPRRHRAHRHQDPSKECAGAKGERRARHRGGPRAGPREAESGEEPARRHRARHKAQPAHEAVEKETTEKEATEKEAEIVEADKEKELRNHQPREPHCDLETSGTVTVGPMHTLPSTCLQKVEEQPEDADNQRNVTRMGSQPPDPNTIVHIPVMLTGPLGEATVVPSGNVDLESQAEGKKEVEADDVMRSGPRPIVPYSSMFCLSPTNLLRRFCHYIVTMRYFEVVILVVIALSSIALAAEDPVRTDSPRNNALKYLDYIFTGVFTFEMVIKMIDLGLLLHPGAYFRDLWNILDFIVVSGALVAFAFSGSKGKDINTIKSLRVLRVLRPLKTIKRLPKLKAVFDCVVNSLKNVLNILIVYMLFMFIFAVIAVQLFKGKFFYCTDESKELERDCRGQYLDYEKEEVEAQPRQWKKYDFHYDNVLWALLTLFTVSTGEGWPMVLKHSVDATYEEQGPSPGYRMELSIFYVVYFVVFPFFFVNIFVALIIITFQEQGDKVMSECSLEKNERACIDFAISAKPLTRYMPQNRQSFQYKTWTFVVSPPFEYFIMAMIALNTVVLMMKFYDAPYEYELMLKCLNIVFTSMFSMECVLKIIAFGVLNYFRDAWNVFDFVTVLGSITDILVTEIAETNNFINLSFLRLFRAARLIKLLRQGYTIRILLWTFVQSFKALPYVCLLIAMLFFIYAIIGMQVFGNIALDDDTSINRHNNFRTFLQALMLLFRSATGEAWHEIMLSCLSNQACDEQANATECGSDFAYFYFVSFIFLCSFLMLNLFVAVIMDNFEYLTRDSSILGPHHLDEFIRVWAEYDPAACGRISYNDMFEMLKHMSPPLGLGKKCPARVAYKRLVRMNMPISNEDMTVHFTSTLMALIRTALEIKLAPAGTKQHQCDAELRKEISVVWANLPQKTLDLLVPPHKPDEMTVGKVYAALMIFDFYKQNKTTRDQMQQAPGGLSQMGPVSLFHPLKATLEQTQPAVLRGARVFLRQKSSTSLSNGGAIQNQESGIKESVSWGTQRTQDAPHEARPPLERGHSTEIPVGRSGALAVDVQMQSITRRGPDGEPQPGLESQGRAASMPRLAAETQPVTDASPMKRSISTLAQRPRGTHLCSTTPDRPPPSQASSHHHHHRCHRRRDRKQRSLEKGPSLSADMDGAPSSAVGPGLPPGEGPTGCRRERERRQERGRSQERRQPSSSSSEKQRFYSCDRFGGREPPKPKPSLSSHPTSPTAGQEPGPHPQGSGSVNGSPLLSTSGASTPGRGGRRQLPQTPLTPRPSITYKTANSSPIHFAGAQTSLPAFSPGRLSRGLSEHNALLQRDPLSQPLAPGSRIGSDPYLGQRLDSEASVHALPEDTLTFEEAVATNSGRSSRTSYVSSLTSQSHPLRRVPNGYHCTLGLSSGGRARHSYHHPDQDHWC
T3 sequence (Q02410 whole entry): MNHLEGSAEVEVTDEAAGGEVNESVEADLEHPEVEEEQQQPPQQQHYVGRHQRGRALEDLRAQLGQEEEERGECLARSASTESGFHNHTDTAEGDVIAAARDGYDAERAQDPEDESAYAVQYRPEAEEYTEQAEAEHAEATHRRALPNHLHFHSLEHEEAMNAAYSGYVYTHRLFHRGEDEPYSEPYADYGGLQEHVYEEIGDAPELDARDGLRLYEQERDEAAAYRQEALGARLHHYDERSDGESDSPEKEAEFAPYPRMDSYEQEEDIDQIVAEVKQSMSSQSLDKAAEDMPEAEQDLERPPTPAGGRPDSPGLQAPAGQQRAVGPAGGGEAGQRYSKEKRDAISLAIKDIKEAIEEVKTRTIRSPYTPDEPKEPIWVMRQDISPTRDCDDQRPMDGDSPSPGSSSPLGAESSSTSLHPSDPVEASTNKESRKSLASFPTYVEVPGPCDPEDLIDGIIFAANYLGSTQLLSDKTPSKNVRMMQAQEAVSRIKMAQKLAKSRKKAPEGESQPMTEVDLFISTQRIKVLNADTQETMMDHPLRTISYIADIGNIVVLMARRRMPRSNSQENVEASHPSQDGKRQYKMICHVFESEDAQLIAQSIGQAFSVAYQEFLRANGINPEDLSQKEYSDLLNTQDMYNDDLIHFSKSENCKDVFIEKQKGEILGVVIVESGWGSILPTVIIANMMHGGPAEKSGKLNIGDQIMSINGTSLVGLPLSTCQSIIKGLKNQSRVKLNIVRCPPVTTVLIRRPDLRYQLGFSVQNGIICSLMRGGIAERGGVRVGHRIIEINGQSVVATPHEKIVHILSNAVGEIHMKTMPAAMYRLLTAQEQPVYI
Sequence of SUMO E1/E2 (Q9UBE0 whole entry): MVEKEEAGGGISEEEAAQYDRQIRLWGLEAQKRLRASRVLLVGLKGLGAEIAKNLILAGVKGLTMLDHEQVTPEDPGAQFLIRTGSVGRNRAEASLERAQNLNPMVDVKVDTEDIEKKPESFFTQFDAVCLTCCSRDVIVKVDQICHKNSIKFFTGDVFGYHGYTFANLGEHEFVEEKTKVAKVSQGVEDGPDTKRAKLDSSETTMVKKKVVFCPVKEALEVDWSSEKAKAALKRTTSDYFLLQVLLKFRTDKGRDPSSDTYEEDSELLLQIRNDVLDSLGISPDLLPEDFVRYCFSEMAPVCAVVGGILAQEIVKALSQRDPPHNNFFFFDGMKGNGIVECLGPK
Sequence of SUMO E1/E2 (Q9UBT2 whole entry): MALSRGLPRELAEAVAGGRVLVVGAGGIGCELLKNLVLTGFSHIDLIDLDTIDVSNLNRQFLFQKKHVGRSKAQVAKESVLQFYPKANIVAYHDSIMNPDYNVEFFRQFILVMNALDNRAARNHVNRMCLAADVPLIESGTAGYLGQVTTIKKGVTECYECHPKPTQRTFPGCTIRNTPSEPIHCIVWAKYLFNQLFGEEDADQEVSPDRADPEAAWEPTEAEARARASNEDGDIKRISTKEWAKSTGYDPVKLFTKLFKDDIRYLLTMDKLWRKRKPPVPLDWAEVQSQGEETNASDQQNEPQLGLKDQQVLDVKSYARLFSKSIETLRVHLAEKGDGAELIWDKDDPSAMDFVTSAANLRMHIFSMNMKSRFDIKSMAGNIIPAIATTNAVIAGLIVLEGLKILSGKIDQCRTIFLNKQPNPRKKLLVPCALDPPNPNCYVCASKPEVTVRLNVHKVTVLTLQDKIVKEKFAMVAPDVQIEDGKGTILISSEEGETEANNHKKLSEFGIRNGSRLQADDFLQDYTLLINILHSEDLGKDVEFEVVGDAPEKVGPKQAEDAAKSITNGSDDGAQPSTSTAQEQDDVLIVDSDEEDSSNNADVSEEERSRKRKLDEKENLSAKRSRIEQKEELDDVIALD
Sequence of SUMO E1/E2 (P63279 whole entry): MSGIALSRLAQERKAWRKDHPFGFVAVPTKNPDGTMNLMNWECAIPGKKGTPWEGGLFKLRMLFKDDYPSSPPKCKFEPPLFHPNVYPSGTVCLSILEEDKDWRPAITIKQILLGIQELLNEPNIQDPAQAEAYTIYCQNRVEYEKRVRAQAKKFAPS
T1 sequence (P98170 whole entry): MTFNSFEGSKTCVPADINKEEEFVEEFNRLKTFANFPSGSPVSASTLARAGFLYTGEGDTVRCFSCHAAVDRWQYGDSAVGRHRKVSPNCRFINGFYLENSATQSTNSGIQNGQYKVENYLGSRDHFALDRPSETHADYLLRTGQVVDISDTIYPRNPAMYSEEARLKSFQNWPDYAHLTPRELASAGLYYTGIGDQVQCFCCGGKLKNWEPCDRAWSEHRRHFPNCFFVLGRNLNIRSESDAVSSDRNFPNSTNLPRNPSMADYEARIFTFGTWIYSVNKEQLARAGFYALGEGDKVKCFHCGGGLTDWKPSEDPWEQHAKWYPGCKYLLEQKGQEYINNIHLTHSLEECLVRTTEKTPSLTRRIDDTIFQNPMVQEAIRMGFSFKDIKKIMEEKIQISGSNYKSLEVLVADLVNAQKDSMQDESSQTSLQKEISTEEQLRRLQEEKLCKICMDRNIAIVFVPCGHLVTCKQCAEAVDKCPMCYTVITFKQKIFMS
Sequence of Nonstructural protein 1 (Q194T2 whole entry): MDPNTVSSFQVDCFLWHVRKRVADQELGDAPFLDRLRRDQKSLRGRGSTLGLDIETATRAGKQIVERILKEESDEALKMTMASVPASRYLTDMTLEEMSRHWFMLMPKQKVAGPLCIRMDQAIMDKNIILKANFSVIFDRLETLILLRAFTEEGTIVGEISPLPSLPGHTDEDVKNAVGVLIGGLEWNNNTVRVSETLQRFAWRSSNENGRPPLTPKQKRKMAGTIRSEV

With `COc1cc(NC(=O)C2CCCN2S(=O)(=O)c2cccc3cccnc23)cc(OC)c1OC` (centres undefined) the IC50 [1] was > 100 µM (not active) and the IC50 [2] was > 100 µM (inactive).
In the case of `O=C1/C(=C\c2cccc([N+](=O)[O-])c2O)SC(=S)N1Cc1ccccc1`, the EC50 (HEK293 [3]) was 5.91 µM (active), the IC50 (HEK293 [4]) was > 20 µM (inactive) and the IC50 (HEK293 [5]) was 4.7 µM (inactive). For the same compound, the IC50 (HEK293 [6]) was 18.9 µM (active), the CC50 (Vero) was 22.8 µM (active) and the EC50 [7] was 9.56 µM (active). The IC50 (Nonstructural protein 1) was 16.4 µM (active).
For `CCOc1ccc(-c2cc(C(=O)O)[nH]n2)cc1`, the IC50 [8] was > 100 µM (not active) and the IC50 [9] was 19.8 µM (active).
For `CCNC(=O)COC(=O)c1cc(-c2ccco2)nc2ccccc12`, the IC50 (SUMO E1/E2) was 2.63 µM (active), the IC50 [10] was 13.3 µM (active) and the IC50 [11] was 33.6 µM (active). The IC50 [12] was 18.5 µM (active), the IC50 [13] was 2.82 µM (active) and the IC50 [14] was 4.39 µM (active).
In the case of `Cc1cccc(N(C)S(=O)(=O)c2ccc(-c3cc(C)no3)s2)c1`, the EC50 [15] was 1.15 µM (active), the EC50 [16] was 9.86 µM (active) and the EC50 [17] was 33.4 µM (inconclusive). The EC50 [18] was 10.4 µM (active), the EC50 [19] was 6.81 µM (inconclusive) and the EC50 [20] was 33.4 µM (active). The EC50 [21] was 6.81 µM (active), the EC50 [22] was 1.15 µM (inconclusive) and the EC50 [23] was 0.155 µM (active).
In the case of `COc1ccccc1CNC(=O)CNC(=O)c1cc(-c2ccco2)nc2ccccc12`, the IC50 (SUMO E1/E2) was 3.37 µM (active), the IC50 [10] was > 56.8 µM (inactive) and the IC50 [12] was 23.3 µM (active).
